≈ marks a conversion by molar mass, not a printed value.
Tests used:
[1] = DPPH assay; settings: methanol, 30 min, 517 nm
Procedure: Free radical scavenging activity of compounds TP-10, TP-315 and TP-427 was evaluated using DPPH assay. Briefly, 25 µl of 0.2 mM of methanolic solution of DPPH ([…]) was mixed with 175 µl of varying concentrations (0.002–4.5 mg/ml) of the studied compounds dissolved in methanol. Reaction mixtures in the 96-well plate were incubated in the dark at room temperature for 30 min. The absorbance was measured at 517 nm against blank (which consists of all reagents without the investigated compounds) using a microplate reader (Epoch, BioTek Instruments, Inc., Winooski, VT, USA). As a reference, the antioxidant activity of vitamin C was evaluated. Each concentration of the compounds was assayed at least six times. The results were expressed as the IC50 (µg/ml) ± SD calculated using the linear regression analysis.

[2] = CUPRAC assay; settings: pH 7.0, 450 nm
Procedure: Cupric reducing antioxidant capacity (CUPRAC) assay was performed according to the method by Apak et al.[20] with slight modifications. The CUPRAC reagent was prepared by mixing equal volume of CuCl2 (10 mM), neocuproine solution (7.5 mM), and acetate buffer (pH = 7.0). Subsequently, 50 µl of TP-10, TP-315, TP-427 (0.002–0.4 mg/ml) and 150 µl of CUPRAC reagent were pipetted into each well of 96-well plate (Nunc, Roskilde, Denmark). After pipetting, the plate was shaken for 5 min and then incubated for 25 min in the dark at room temperature. The absorbance of the solutions was read at 450 nm using a microplate reader (Epoch, BioTek Instruments, Inc., Winooski, VT, USA). At least six tests were performed for each concentration of the investigated compounds. The results were expressed as the IC50 (µg/ml) ± SD.

[3] = system: U-87 MG cells; assay: Cell viability, MTT assay; assay type: cell-based, human; settings: 10 µg/ml, 24 h
Procedure: Viability of glioblastoma cells U-87 MG (ATCC HTB-14) exposed to a fixed dose of 10 µg/ml of TP-10, TP-315, and TP-427 was measured using MTT assay. Stock solutions of the investigated compounds in DMSO were prepared in the concentration of 50 mg/ml. The cells were cultured at 37 °C in a 5% CO2 atmosphere using Eagle’s Minimum Essential Medium (EMEM) supplemented with 10% foetal bovine serum (FBS), 100 U/ml of penicillin, and […] of streptomycin. Suspension of U-87 MG cells at a density of 1 × 10^5 cells/ml was placed in 96-well plate (100 µl in each well) and incubated for 24 h. On the day of the experiment, the medium was removed from wells and replaced with medium containing a fixed concentration (10 µg/ml) of the respective 1,2,4-triazole derivative. After 24 h of incubation, 15 µl of MTT solution (5 mg/mL in PBS) was added to each well and the microplates were incubated for the next 3 h. Crystals of formazan formed in the metabolically active cells were solubilised with 10% SDS solution (100 µl) during overnight incubation and then the absorbance of dissolved formazan was measured at λ = 570 nm using a microplate reader (Epoch, BioTek Instruments, Inc., Winooski, VT, USA). The viability of cells treated with TP-10, TP-315, or TP-427 was expressed as the % of the viability of control cells (i.e. cells incubated without respective compounds). The experiments were run in triplicate and repeated three times. Sample observations and image capturing were performed using Olympus CKX53 microscope coupled with XM10 digital camera (Olympus).

[4] = system: U-87 MG cells; assay: Total ROS activity assay (flow cytometry); assay type: cell-based, human; settings: 10 µg/ml, 24 h; for ROS positive cells: control 90.2%
Procedure: Total ROS activity was measured using Intracellular Total ROS Activity Assay Kit (ImmunoChemistry Technologies, Bloomington, MN, USA). After 24 h of incubation of glioblastoma cells U-87 MG (ATCC, Manassas, VA, USA) with the test compounds in concentration 10 µg/ml, the medium was removed, the cells were washed twice with the cold PBS solution and the Assay Buffer (provided by the kit manufacturer) was added. Then, cells (at a density of 1 × 10^6 cells/ml) were treated with 10 µl of Total ROS green reagent and incubated for 1 h at 37 °C in a CO2 incubator. After incubation, the cells were subjected to a rinsing procedure using the Assay Buffer. Cells were suspended in 500 µl of the Assay Buffer and analysed using a flow cytometer (BD FACSCanto II flow cytometer) and FACSDiva software (both from BD Biosciences Systems, San Jose, CA, USA).

[5] = system: U-87 MG cells; assay: Mitochondrial membrane potential, JC-1 dye (flow cytometry); assay type: cell-based, human; settings: 10 μg/ml, 24 h, control 5.0%
Procedure: Mitochondrial membrane potential changes (ΔMMP) were assessed using the JC-1 MitoScreen Kit (BD Biosciences Systems, San Jose, CA, USA) as described previously. Sample of 10^6 cells/ml was suspended in a buffer mixture and incubated for 15 min at 37 °C with JC-1 dye provided by the kit manufacturer. Subsequently, the cells were washed and resuspended in a buffer. Samples prepared in this way were subjected to cytometric analysis using a cytometer BD FACSCanto II and FACSDiva software (both from BD Biosciences Systems, San Jose, CA, USA).

[6] = system: human recombinant acetylcholinesterase (hrAChE); assay: AChE inhibition, Ellman method; assay type: biochemical; settings: 500 µM
Procedure: (§1) The inhibition ability of tested compounds against human recombinant acetylcholinesterase (hrAChE) and human recombinant butyrylcholinesterase (hrBChE) was determined by standard Ellman method adapted for 96-well plate. The reaction mixture contained 10 µL of hrAChE (70 ng/mL protein final concentration) or hrBChE (220 ng/mL protein final concentration), 10 µL of tested compound (1, 10, 100, and 500 µM final concentration), 20 µL of 5,5′-dithiobis-2-nitrobenzoic acid (DTNB; 500 µM final concentration), and 60 µL of 20 mM Na-phosphate buffer (pH 7.4). The mixture was pre-incubated at 37 °C for 15 min and subsequently 10 µL substrate acetylthiocholine iodide (ATChI) or butyrylthiochiline iodide (BTChI) was added to the final concentration of 1000 µM[24]. The final volume of reaction mixture was 100 µL. The product formed during the reaction (5-thio-2-nitrobenzoic acid, TNB) was determined by measurement of its absorbance at 436 nm. The catalytic activity was evaluated as amount of product (%) formed by enzyme after 10 min of mixture incubation at 37 °C.

[7] = system: human recombinant butyrylcholinesterase (hrBChE); assay: BChE inhibition, Ellman method; assay type: biochemical; settings: 500 µM
Procedure: as §1

[8] = system: generalised tonic-clonic seizures (MES test); design: method as in PMID 30594731, PMID 23291122, PMID 25226229, PMID 25090118; settings: Figure 1, cited from earlier work; for ED50: MES test

CCCCCCn1c(-c2cccc(Cl)c2)n[nH]c1=S [TP-315, 5-(3-chlorophenyl)-4-hexyl-2,4-dihydro-3H-1,2,4-triazole-3-thione]
IC50 ± SD, DPPH [1]: 56.87 ± 0.70 µg/mL (≈ 192 µM)
IC50 ± SD, CUPRAC [2]: 22.28 ± 1.03 µg/mL (≈ 75.3 µM)
Relative viability vs. untreated cells [3]: 98.82 ± 2.84%
ROS negative cells [4]: 14.1%
ROS positive cells [4]: 85.9%
cells with low mitochondrial membrane potential (ΔΨm) [5]: 9.9%
decrease of hrAChE activity [6]: ~66%
hrBChE activity [7]: 59%
ED50 [8]: 47.6 mg/kg

CCCCCCn1c(Cc2cccc(Cl)c2)n[nH]c1=S [TP-427, 5-(3-chlorobenzyl)-4-hexyl-2,4-dihydro-3H-1,2,4-triazole-3-thione]
IC50 ± SD, DPPH [1]: 110.51 ± 2.12 µg/mL (≈ 357 µM)
IC50 ± SD, CUPRAC [2]: 30.92 ± 1.11 µg/mL (≈ 99.8 µM)
Relative viability vs. untreated cells [3]: 98.53 ± 4.18%
ROS negative cells [4]: 20.9%
ROS positive cells [4]: 79.1%
cells with low mitochondrial membrane potential (ΔΨm) [5]: 16.5%
decrease of hrAChE activity [6]: ~61%
hrBChE activity [7]: 78%
interaction with VPA [8]: synergism with VPA
ED50 [8]: 72.1 mg/kg

Cc1ccc(-n2c(-c3cccc(Cl)c3)n[nH]c2=S)cc1 [TP-10, 5-(3-chlorophenyl)-4-(4-methylphenyl)-2,4-dihydro-3H-1,2,4-triazole-3-thione]
IC50 ± SD, DPPH [1]: 31.72 ± 1.05 µg/mL (≈ 105 µM)
IC50 ± SD, CUPRAC [2]: 16.04 ± 0.61 µg/mL (≈ 53.1 µM)
Relative viability vs. untreated cells [3]: 99.16 ± 3.92%
ROS negative cells [4]: 11.5%
ROS positive cells [4]: 88.5%
cells with low mitochondrial membrane potential (ΔΨm) [5]: 8.0%
decrease of hrAChE activity [6]: ~54%
hrBChE activity [7]: 84%
interaction with VPA [8]: synergism with VPA
ED50 [8]: 57.0 mg/kg
